Laboratory results published in the NIST ThermoML archive (doi:10.1016/j.jct.2014.07.026).
± gives the expanded uncertainty stated by the source.

Test: mn = molality of the nth substance listed, in mol/kg
Settings: 100 kPa, Liquid; for mass density: Vibrating tube method; for speed of sound: Frequency=2 MHz, Linear variable-path acoustic interferometer

CC(C)[C@H](N)C(=O)[O-].CCCCn1cc[n+](C)c1 [1-butyl-3-methylimidazolium L-valinate] + O
Settings | mass density [kg/m3] | speed of sound [m/s]
293.15 K, m1 = 0.03333 | 999.132 ± 0.11 | –
293.15 K, m1 = 0.05233 | 999.647 ± 0.11 | –
293.15 K, m1 = 0.07111 | 1000.15 ± 0.11 | –
293.15 K, m1 = 0.08607 | 1000.55 ± 0.11 | –
293.15 K, m1 = 0.1001 | 1000.93 ± 0.11 | –
293.15 K, m1 = 0.138 | 1001.93 ± 0.11 | –
293.15 K, m1 = 0.1804 | 1003.02 ± 0.11 | –
293.15 K, m1 = 0.2187 | 1004 ± 0.11 | –
293.15 K, m1 = 0.2653 | 1005.21 ± 0.11 | –
293.15 K, m1 = 0.3295 | 1006.77 ± 0.11 | –
293.15 K, m1 = 0.3595 | 1007.51 ± 0.11 | –
293.15 K, m1 = 0.4046 | 1008.61 ± 0.11 | –
293.15 K, m1 = 0.4561 | 1009.85 ± 0.11 | –
298.15 K, m1 = 0.03333 | 997.952 ± 0.11 | –
298.15 K, m1 = 0.05233 | 998.454 ± 0.11 | –
298.15 K, m1 = 0.06361 | – | 1509.7 ± 2.5
298.15 K, m1 = 0.07111 | 998.947 ± 0.11 | –
298.15 K, m1 = 0.08607 | 999.329 ± 0.11 | –
298.15 K, m1 = 0.1001 | 999.708 ± 0.11 | –
298.15 K, m1 = 0.1178 | – | 1519.6 ± 2.5
298.15 K, m1 = 0.138 | 1000.66 ± 0.11 | –
298.15 K, m1 = 0.1494 | – | 1525.3 ± 2.5
298.15 K, m1 = 0.1804 | 1001.72 ± 0.11 | –
298.15 K, m1 = 0.2009 | – | 1534.4 ± 2.5
298.15 K, m1 = 0.2187 | 1002.66 ± 0.11 | –
298.15 K, m1 = 0.2467 | – | 1542.1 ± 2.5
298.15 K, m1 = 0.2653 | 1003.87 ± 0.11 | –
298.15 K, m1 = 0.2965 | – | 1550.5 ± 2.5
298.15 K, m1 = 0.3295 | 1005.34 ± 0.11 | –
298.15 K, m1 = 0.3434 | – | 1558.2 ± 2.5
298.15 K, m1 = 0.3595 | 1006.08 ± 0.11 | –
298.15 K, m1 = 0.4046 | 1007.11 ± 0.11 | –
298.15 K, m1 = 0.4049 | – | 1568.3 ± 2.5
298.15 K, m1 = 0.4496 | – | 1575.2 ± 2.5
298.15 K, m1 = 0.4561 | 1008.32 ± 0.11 | –
298.15 K, m1 = 0.513 | – | 1584.9 ± 2.5
298.15 K, m1 = 0.5714 | – | 1593.8 ± 2.6
303.15 K, m1 = 0.03333 | 996.535 ± 0.11 | –
303.15 K, m1 = 0.05233 | 997.021 ± 0.11 | –
303.15 K, m1 = 0.07111 | 997.503 ± 0.11 | –
303.15 K, m1 = 0.08607 | 997.878 ± 0.11 | –
303.15 K, m1 = 0.1001 | 998.242 ± 0.11 | –
303.15 K, m1 = 0.138 | 999.178 ± 0.11 | –
303.15 K, m1 = 0.1804 | 1000.22 ± 0.11 | –
303.15 K, m1 = 0.2187 | 1001.13 ± 0.11 | –
303.15 K, m1 = 0.2653 | 1002.26 ± 0.11 | –
303.15 K, m1 = 0.3295 | 1003.73 ± 0.11 | –
303.15 K, m1 = 0.3595 | 1004.44 ± 0.11 | –
303.15 K, m1 = 0.4046 | 1005.44 ± 0.11 | –
303.15 K, m1 = 0.4561 | 1006.67 ± 0.11 | –
308.15 K, m1 = 0.03234 | 994.871 ± 0.11 | –
308.15 K, m1 = 0.05133 | 995.354 ± 0.11 | –
308.15 K, m1 = 0.06493 | 995.698 ± 0.11 | –
308.15 K, m1 = 0.08884 | 996.286 ± 0.11 | –
308.15 K, m1 = 0.1058 | 996.698 ± 0.11 | –
308.15 K, m1 = 0.1347 | 997.389 ± 0.11 | –
308.15 K, m1 = 0.181 | 998.492 ± 0.11 | –
308.15 K, m1 = 0.2182 | 999.371 ± 0.11 | –
308.15 K, m1 = 0.2583 | 1000.3 ± 0.11 | –
308.15 K, m1 = 0.3177 | 1001.66 ± 0.11 | –
308.15 K, m1 = 0.3591 | 1002.6 ± 0.11 | –
308.15 K, m1 = 0.4041 | 1003.61 ± 0.11 | –
308.15 K, m1 = 0.4561 | 1004.69 ± 0.11 | –
313.15 K, m1 = 0.03234 | 993.036 ± 0.11 | –
313.15 K, m1 = 0.05133 | 993.509 ± 0.11 | –
313.15 K, m1 = 0.06493 | 993.842 ± 0.11 | –
313.15 K, m1 = 0.08884 | 994.427 ± 0.11 | –
313.15 K, m1 = 0.1058 | 994.828 ± 0.11 | –
313.15 K, m1 = 0.1347 | 995.499 ± 0.11 | –
313.15 K, m1 = 0.181 | 996.579 ± 0.11 | –
313.15 K, m1 = 0.2182 | 997.425 ± 0.11 | –
313.15 K, m1 = 0.2583 | 998.325 ± 0.11 | –
313.15 K, m1 = 0.3177 | 999.623 ± 0.11 | –
313.15 K, m1 = 0.3591 | 1000.51 ± 0.11 | –
313.15 K, m1 = 0.4041 | 1001.5 ± 0.11 | –
313.15 K, m1 = 0.4561 | 1002.64 ± 0.11 | –
